# Measured values: patent US11718650B2, “Immunogenic peptides and their use in immune disorders” (IMCYSE SA, priority 2006, dated 2023)
# Read-outs that look alike come from different tables or passages of the source. Non-standard residues stand in square brackets, D forms with d. No end group written: not given here.
# Columns and labels:
# dendritic cells = type: cell-based
# Patients = assay: patients with birch pollen and apple allergy treated with peptide; type: in vivo, human; conditions: 3 SC injections
# Description: Patients presenting with allergic symptoms upon exposure to birch pollen together with an oro-pharyngeal allergy to ingestion of apple and treated by 3 SC injections of peptide CGPC […] [SEQ ID.
# CD4+ T cell = CD4+ T cell proliferation elicited by single amino acid p21-35 mutants (IP immunisation in alum); conditions: mouse, in vivo
# Procedure: Based on findings showing that regulation can be more readily achieved with analogues of T cell epitopes, the capacity of various single amino acid p21-35 mutants to elicit CD4+ T cell after IP immunisation in alum was determined. […] The mutated form of mp21-35 (mp21-35Asn) was therefore use in the remainder of the experiments in this Example.
# MHC II cleft = assay: affinity for the MHC II cleft; type: binding
# C57BL/6 mice = assay: prevention of multiple sclerosis by peptide immunisation; type: in vivo, mouse; conditions: 5 injections 20 μg in IFA at 14 days interval before disease induction
# Procedure: In the model group, 3 C57BL/6 mice received, at day 0, SC injection of 100 μg MOG peptide/400 μg Mycobacterium butyricum in CFA and ip injection of 300 ng Bortetella pertussis in NaCl. At day +2, a second injection of B. pertussis was given.
# In the prevention group, 5 C57BL/6 mice are immunised by 5 injections with 20 μg CSMOG peptide (CHGS […] [SEQ ID. NO: 32]), which contains the sequence motif C-X(2)-S, in IFA at 14 days interval before disease induction as in the model group. Control experiments are performed with the peptide [SEQ ID. NO: 33] lacking the motif at its N-terminus.
# Scores were established as 0: no disease, 1: limp tail, 2: limp tail and loss of weight higher than 10%, 3: partial paralysis of hind limbs.
# [1] = system: polyclonal CD4+CD25− cells; assay: bystander suppression assay with CD4+CD25− cells from EAE animals; type: cell-based, mouse; conditions: 20 μg SC on aluminium hydroxide, three injections
# Procedure: Groups of C57BL/6 mice are immunised subcutaneously (20 μg) with peptide (CHGS […] [SEQ ID. NO: 32], which contains the sequence motif C-X(2)-S) or control peptide ([…] [SEQ ID. NO: 33]) adsorbed onto aluminium hydroxide, Three injections are performed at 2-week intervals. Ten days after the last immunisation, mice are sacrificed and CD4+ T cells (2×10^6 cells) are prepared from the spleen using magnetic beads. CD4+ T cells are then stimulated in vitro by the MOG T cell epitope (20 μg/ml) presented by adherent spleen cells (2×10^6 cells).
# After four re-stimulations, a T cell line is tested in a bystander suppression assay with, as target cells, polyclonal CD4+CD25− cells obtained from animals in which EAE (Experimental autoimmune encephalomyelitis) was effective.
# NOD mice = assay: spontaneous insulin-dependent diabetes in NOD mice, GAD65 derived peptide; type: in vivo, mouse
# Description: Non-obese diabetes (NOD) mice constitutes a suitable animal model for spontaneous insulin-dependent diabetes.
# Adoptive transfer of Treg at the age of 2 weeks in NOD mice, namely before the onset of insulitis (3 weeks of age) is shown to fully prevent the onset of diabetes.
# Direct immunisation of NOD mice with the peptide CRLC […] [SEQ ID.
# Immunisation with peptide CRLC […] [SEQ ID.
# polyclonal CD4 cells = assay: apoptosis of polyclonal CD4 cells from peptide 524-543 immunised NOD mice; type: cell-based, mouse; conditions: APC loaded with peptide 524-543
# Description: NOD mice are immunised with peptide containing the thioredoxin consensus sequence in IFA (incomplete Freund adjuvans) from the age of 2 weeks. T cells are expanded in vitro to generate clones with regulatory properties.
# The table in FIG. 23 represents the percentage of double positive cells (dead cells) after substraction of background values obtained without the regulatory population.
# CD4+CD25(−) T cells = assay: bystander suppression of anti-CD3 activated CD4+CD25(−) T cells; type: cell-based, mouse; conditions: 72 h, 2 concentrations (2mM, 4 mM)
# Procedure: Bystander suppression assays. Target CD4+CD25− T cells and T helper clones were labelled with 125nM CFSE (Molecular Probes) for 15 minutes in PBS at 37° C. The reaction was stopped by washing the cells with PBS containing 30% FBS. These cells (3×10^5) were cocultured with 10^5 cytotoxic CD4+ T cell clones and cell depleted splenocytes with 1 μg/ml anti-CD3 antibody (eBioscience), For suppression of T helper clones, 10^5 cells were co-cultured with the same number of cytotoxic cells and T cell depleted splenocytes. After 48 h or 72 hours, cells were collected and analysed by flow cytometry.
# First, the capacity of Tregs was assayed to suppress the proliferation of CD4+CD25(−) T cells after anti-CD3 activation in the presence of antigen-presenting cells. […] This effect was even more pronounced at 72 h for the second T cell clone (lower middle panel). […] The control experiment in which Treg was replaced by an identical number of unlabeled CD4+CD25(−) T cells (right panels) eliminated a possible artefact related to variable numbers of total cells in the culture medium.
# Next, the kinetics of suppression were analysed. In the experiments shown in FIG. 14b, it can be seen that 48 and 70% of CFSE-labelled CD4+CD25(−) T cells express Annexin V after 18 and 24 h co-incubation with a cytolytic Treg (R3TB7), respectively, using the same assay system as in FIG. 14a. […]
# WEHI cells [2] = assay: apoptosis of peptide-loaded WEHI cells by cytolytic T cell clones, with inhibitors; type: cell-based, mouse
# Procedure: For inhibition of GZ-B activity, Z-AAD-CMK (Calbiochem) or 3,4-dichloroiso-coumarin (DCIC) (SIGMA) were added at indicated concentrations during all the co-culture period.
# Experiments were carried out with p21-35-loaded CD11c dendritic (FIG. 13b: left panel) or WEHI cells (FIG. 13b: right panel). Upon incubation with R3TB7 virtually all dendritic cells (DC) or Wehi cells were induced into apoptosis as measured by caspase 3 activation.
# Apoptosis can be induced by either the Fas-FasL pathway or by secretion of cytotoxic granules containing granzymes. Attempts were made to inhibit each of these pathways. Addition of increasing concentrations of an antibody towards FasL, or of granzyme B inhibitors, to a cell culture containing p21-35 loaded WEHI cells and a cytolytic T cell clone, increased the number of surviving WEHI cells in a dose-dependent manner (FIG. 13c). In a number of experiments it was shown that the anti-FasL antibody restored up to 80% of WEHI cell survival.
# To further ascertain that APC lysis required direct contact with cytolytic T cells through MHC class II presentation of p21-35, an experiment was carried out in which two identical populations of Wehi cells were loaded with either p21-35 or with an irrelevant peptide (p71-85). These two populations could be distinguished by differential CFSE labelling. It can be seen from FIG. 13e that, while WEHI cells presenting p21-35 were fully lysed, only 40% of p71-85-loaded cells were affected.
# spleen CD4+ T cells = conditions: mouse, in vivo, ip
# BALB/c mice = conditions: mouse, in vivo
# WEHI cells [3] = assay: Wehi cell apoptosis by the G121 regulatory T cell clone with various forms of peptide; type: cell-based, mouse
# G221N = assay: peptide processing assay with effector T cell clone G221N; type: cell-based, mouse
# CD4+ effector T cells = assay: activation of CD4+ effector T cells from patients sensitised to Der p 2; type: cell-based, human
# Description: Chemokines involved in attracting T lymphocytes to the lung are not precisely identified. The cytolytic Tregs described here express CD103 but not CCR7, which should confer them with the capacity to migrate to inflamed tissues. Other chemokines such as CCR5 and CCR3 were not detected. […] In an experimental model of asthma, including peripheral sensitisation and allergen inhalation, it was shown that Tregs have the capacity to prevent and suppress both inflammatory infiltration and airway hyperreactivity, which are the hallmarks of bronchial asthma. An LPS-free recombinant form of a main allergen, Der p 2, was used, which is involved in a large proportion of patients suffering from allergic asthma.
# [4] = system: Treg clone specific for p21-35; assay: oxidative metabolism (ROS, carboxy-H2DCFDA) of cognate Treg cells; type: cell-based, mouse; conditions: 20 μg/ml, 90 minutes
# Procedure: A Treg clone (10^5 cells) specific for p21-35 was incubated for 90 minutes with PBS (FIG. 5, panel A), peptide p21-35 (20 μg/ml in 200 μl PBS; FIG. 5, panel B) or tert-butyl hydroperoxide (100 μM in PBS; FIG. 5, panel C), which is an inducer of Reactive Oxygen Species (ROS). Cells were then labelled for 30 minutes with carboxy-H2DCFDA (12 μM), a fluorogenic marker for ROS in live cells, and then analysed by flow cytometry.
compound,measurement,setting,value
(CGPC)D-isomer LRAVESYLLAH ([dC]G[dP][dC]LRAVESYLLAH; cysteine pairing not given here) [SEQ ID. NO: 47],apoptosis of dendritic cells by CD4+ T cells of treated subjects,dendritic cells; dendritic cells loaded with the Mal d 1 antigen,resulted in dendritic cell apoptosis
same,apoptosis of dendritic cells by CD4+ T cells of treated subjects,"dendritic cells; dendritic cells presenting the Bet v 1 antigen, three SC injections of 50 μg on alum",induced apoptosis of dendritic cells presenting the Bet v 1 antigen
same,reaction to pollen exposure or apple contact,Patients,failed to react to either exposure to pollen or contact with apple
"IIe28Asn: IIe28Asn substitution of Der p 2 peptide p21-35 (CHGSEPCNIHRGKPF; UniProt P49278 38-52, looked up, fragment I28N)",capacity to induce T cell proliferation,CD4+ T cell,only slightly reduced
same,affinity for the MHC II cleft versus natural p21-35,MHC II cleft,lower affinity
CHGS YRSPFSRVVHLYR (CHGSYRSPFSRVVHLYR; reducing motif fused to MOG (Myelin Oligodendrocyte Glycoprotein) peptide) [SEQ ID. NO: 32],development of the syndrome (clinical score),C57BL/6 mice,completely abolishes the development of the syndrome
same,capacity of T cell line from immunised animals to induce death in target cells,[1],have the capacity to induce death in target cells
CRLC KVAPVIKARMM (CRLCKVAPVIKARMM; modified fragment of glutamic acid decarboxylase (GAD65)) [SEQ ID. NO: 35],"diabetes and insulitis, suppression by immunisation",NOD mice; after 15 weeks of age,suppress diabetes and insulitis
same,"diabetes and insulitis, prevention by direct immunisation",NOD mice; from the age of 2 weeks,fully prevent diabetes and lesions of insulitis
same,apoptosis induced by polyclonal cells from immunised mice,polyclonal CD4 cells,induce apoptosis in polyclonal CD4 cells
O=C(O)CN(CCOCCOCCN(CC(=O)O)CC(=O)O)CC(=O)O [EGTA],inhibition of the suppression of bystander T cells,CD4+CD25(−) T cells,Basically no inhibition
same,restoration of WEHI cell survival,WEHI cells [2]; p21-35 loaded WEHI cells and a cytolytic T cell clone,only partial restoration of Wehi cell survival
QYIKANSKFIGITELGGCHGSEPCIIHRGKPF [mp21-35],Der p 2-induced proliferation of spleen CD4+ T cells,spleen CD4+ T cells,significant reduction
same,suppression of airway inflammation and hyperreactivity,BALB/c mice,even more effective in suppressing airway inflammation and hyperreactivity
same,"efficiency in inducing Wehi cell apoptosis in the presence of the G121 Treg, as compared to p21-35",WEHI cells [3],100 fold
same,"requirement for internalisation, fusion with and acidification of late endosomes",G221N,required internalisation into antigen-presenting cells
same,requirement for peptide processing,G221N,had to be processed for efficient presentation
CHGSEPCIIHRGKPF (the p21-35 peptide of Der p 2 allergen) [amino acids 21 to 35 of Der p 2],activation of patients' CD4+ effector T cells,CD4+ effector T cells,activated CD4+ effector T cells from patients sensitised to Der p 2
same,lysis of WEHI cells loaded with the peptide,"WEHI cells [2]; two CFSE-labelled populations, G121 Treg, 18 hours",fully lysed
same,fluorescence intensity due to ROS increase,[4],doubling
